Reference: US20160305924A1 (LAGUNA PHARMACEUTICALS , INC., priority 2013, published 2016)
Each block holds one compound with its values, some of them ahead of it.

Assays:
Format in all cases: in vivo, human
[1] = Example 1: plasma concentrations of vanoxerine and metabolites after a 300 mg dose (LC-MS/MS); details: for High concentration group average (plasma concentration): 10 patients high concentration group; for Low concentration group average (plasma concentration): 15 patients low concentration group; for Concentrations (plasma): mean of 25 patients
Experimental: Each patient gave samples before administration of their dose, and then again at nine further time points, 30 minutes after administration, 1, 2, 3, 4, 6, 8, 12, and 24 hours post administration.
Evaluation of samples: A total of 270 human plasma samples were received (in duplicate). The samples were shipped frozen over dry ice. The samples were stored at −70° C. (nominal) until analysis.
Frozen samples were thawed at room temperature. Samples, calibrators, QC samples, sample blanks (blank plasma) and reagent blanks (water) were processed at room temperature. To 200 μL aliquots of each sample, calibrator, and QC sample are added 20 μL of 500 ng/mL of internal standard solution. A sample blank (blank plasma) and reagent blank (water) were also prepared, but without addition of internal standard solution (20 μL of diluent was added instead). To each sample, 200 μL of 1% ammonium hydroxide solution were added and vortex mixed. 3.0 mL of methyl tert-butyl ether were added and then vortex mix for 30 seconds. The sample is then centrifuged for 5 minutes at 4000 rpm and then transferred for about 30 minutes at −70° C. (nominal). The upper (organic) layer was transferred into an evaporation tubes and then evaporated under N2 stream at −50° C. for about 20 min. Samples were then reconstituted in 1000 μL reconstitution solution (80:20:0.1 water: acetonitrile: formic acid). Samples were mixed, allow to stand for about 3 minutes and mixed again. 900 μL of the sample solution was transferred to a 1.5 mL microcentrifuge tube and centrifuged for 5 minutes at 14000 rpm at room temperature. 800 μL of the sample solution was transferred to a glass autosampler vial, and then transferred to the autosampler for analysis. Samples were separated using reversed-phase liquid chromatography with a C18 column.
Chromatographic conditions were as follows: • HPLC instrument: Waters Alliance e2795 HT with temperature controlled autosampler • Column: Waters XBridge C18 3.5μ 100×2.1 mm P.N. 186003022, Lot No. 0143302711 with an appropriate guard column • Column temperature: 45° C. • Autosampler temp. 5° C. • Flow: 0.3 mL/min • Mobile phase A: 10 mM ammonium formate buffer:MeOH:ACN 80:10:10 • Mobile phase B: 10 mM ammonium formate buffer:MeOH:ACN 5:50:45 • Purge solvent: Water:ACN:formic acid 50:50:0.1 • Wash solvent: Water:ACN:formic acid 50:50:0.1 • Injection volume: 20 μL • Run Time: 15 minutes
Detection was based on electro-spray interface in positive mode (ESI+) LC-MS/MS technique, using Micromass Quattro Premier XE MS/MS detector with MassLynx and QuanLynx software version 4.1. […] The MRM transition for all hydroxyl metabolites was m/z 467→203.

[2] = Example 2: daily doses for 11 consecutive days, PK and hemodynamics
[3] = Example 3: daily doses for 14 days after a standardized meal, serum levels and adverse events
Experimental: A standardized meal was served 15 minutes prior to each dosing.

[4] = Example 4: daily doses for 7 days, hemodynamics and steady state; details: 50, 100, 150 mg daily, all patients
[5] = system: recent onset symptomatic AF/AFL; test: Example 5: double-blinded placebo-controlled study, conversion to sinus rhythm
Excerpt: (§1) The vanoxerine or identical appearing placebo was randomly assigned and administered in a double-blinded fashion.

[6] = Example 5: adverse events
Excerpt: as §1

[7] = 0.5 h post administration, 1.00 = below LLOQ

High concentration group average (plasma concentration) ([1]; 0.5 h, 1.00 = below LLOQ): 1.00 ng/mL
High concentration group average (plasma concentration) ([1]; 1 h, 1.00 = below LLOQ): 1.00 ng/mL
High concentration group average (plasma concentration) ([1]; 6 h, 1.00 = below LLOQ): 1.00 ng/mL
High concentration group average (plasma concentration) ([1]; 8 h, 1.00 = below LLOQ): 1.00 ng/mL
High concentration group average (plasma concentration) ([1]; 12 h, 1.00 = below LLOQ): 1.00 ng/mL
High concentration group average (plasma concentration) ([1]; 24 h): 0.00 ng/mL
Low concentration group average (plasma concentration) ([1]; 0.5 h, 1.00 = below LLOQ): 1.00 ng/mL
Low concentration group average (plasma concentration) ([1]; 2 h, 1.00 = below LLOQ): 1.00 ng/mL
Low concentration group average (plasma concentration) ([1]; 3 h, 1.00 = below LLOQ): 1.00 ng/mL
Low concentration group average (plasma concentration) ([1]; 4 h, 1.00 = below LLOQ): 1.00 ng/mL
Low concentration group average (plasma concentration) ([1]; 6 h, 1.00 = below LLOQ): 1.00 ng/mL
Low concentration group average (plasma concentration) ([1]; 8 h, 1.00 = below LLOQ): 1.00 ng/mL
Low concentration group average (plasma concentration) ([1]; 12 h, 1.00 = below LLOQ): 1.00 ng/mL
Low concentration group average (plasma concentration) ([1]; 24 h, 1.00 = below LLOQ): 1.00 ng/mL
Concentrations (plasma) [1, 7]: 1.00 ng/mL
Concentrations (plasma) ([1]; 1 h, 1.00 = below LLOQ): 1.02 ng/mL
Concentrations (plasma) ([1]; 2 h, 1.00 = below LLOQ): 1.02 ng/mL
Concentrations (plasma) ([1]; 3 h, 1.00 = below LLOQ): 1.01 ng/mL
Concentrations (plasma) ([1]; 4 h, 1.00 = below LLOQ): 1.01 ng/mL
Concentrations (plasma) ([1]; 6 h, 1.00 = below LLOQ): 1.00 ng/mL
Concentrations (plasma) ([1]; 8 h, 1.00 = below LLOQ): 1.00 ng/mL
Concentrations (plasma) ([1]; 12 h, 1.00 = below LLOQ): 1.00 ng/mL
Concentrations (plasma) ([1]; 24 h, 1.00 = below LLOQ): 1.00 ng/mL
Compound: 16-hydroxyl vanoxerine [M02]

High concentration group average (plasma concentration) ([1]; 2 h, 1.00 = below LLOQ): 28.00 ng/mL
Low concentration group average (plasma concentration) ([1]; 8 h, 1.00 = below LLOQ): 5.30 ng/mL
Concentrations (plasma) [1, 7]: 1.93 ng/mL
Concentrations (plasma) ([1]; 1 h, 1.00 = below LLOQ): 7.51 ng/mL
Concentrations (plasma) ([1]; 2 h, 1.00 = below LLOQ): 19.65 ng/mL
Concentrations (plasma) ([1]; 3 h, 1.00 = below LLOQ): 18.68 ng/mL
Concentrations (plasma) ([1]; 4 h, 1.00 = below LLOQ): 16.42 ng/mL
Concentrations (plasma) ([1]; 6 h, 1.00 = below LLOQ): 11.48 ng/mL
Concentrations (plasma) ([1]; 8 h, 1.00 = below LLOQ): 8.98 ng/mL
Concentrations (plasma) ([1]; 12 h, 1.00 = below LLOQ): 6.30 ng/mL
Concentrations (plasma) ([1]; 24 h, 1.00 = below LLOQ): 3.66 ng/mL
Compound: 17-hydroxyl vanoxerine [M01]

T1/2 range ([2]; 50 mg daily for 11 days): (4.71-110.57) hr
T1/2 range ([2]; 75 mg daily for 11 days): (10.26-116.67) hr
steady state reached ([2]; 50, 75 and 100 mg daily): ≤ 8 days
Tmax ([2]; human, plasma, printed in the Dose column under 50 mg, read-out: TMax range): 0.5 to 2 h
steady state levels achieved [4]: within one week
Compound: Fc1ccc(C(OCCN2CCN(CCCc3ccccc3)CC2)c2ccc(F)cc2)cc1 [Vanoxerine, 1-[2-[bis(4-fluorophenyl)methoxy]ethyl]-4-(3-phenylpropyl)piperazine]
steady-state serum levels versus dose ([3]; 25, 75, 125 mg daily): disproportionately and statistically greater levels at higher doses
adverse events ([3]; 25, 75, 125 mg daily for 14 days, healthy patients): No significant adverse events
Efficacy: Percent conversion ([5]; 200 mg (22), 0-4 hr): 18%
Efficacy: Percent conversion ([5]; 200 mg (22), 0-8 hr): 45%
Efficacy: Percent conversion ([5]; 200 mg (22), 0-24 hr): 59%
Efficacy: Percent conversion ([5]; 300 mg (25), 0-4 hr): 40%
Efficacy: Percent conversion ([5]; 300 mg (25), 0-8 hr): 52%
Efficacy: Percent conversion ([5]; 300 mg (25), 0-24 hr): 64%
Efficacy: Percent conversion ([5]; 400 mg (25), 0-4 hr): 52%
Efficacy: Percent conversion ([5]; 400 mg (25), 0-8 hr): 76%
Efficacy: Percent conversion ([5]; 400 mg (25), 0-24 hr): 84%
time to conversion to normal sinus rhythm, majority of patients ([5]; at a Cmax plasma concentration of more than 40 ng/ml): under 12 hours
Adverse events: serious adverse events ([6]; 200 mg (22)): 1 SAE
Adverse events: subjects reporting ([6]; 200 mg (22)): 4 (18%) subjects (%)
Adverse events: subjects reporting ([6]; 300 mg (25)): 7 (28%) subjects (%)
Adverse events: serious adverse events ([6]; 400 mg (25)): 1 SAE
Adverse events: subjects reporting ([6]; 400 mg (25)): 10 (40%) subjects (%)
tolerability ([6]; 200, 300, 400 mg): well tolerated at all doses
